Assay results taken from US11040981B2, “Pyrrolotriazine compounds and methods of inhibiting TAM kinases” (Syros Pharmaceuticals, Inc., priority 2017, dated 2021).

Legend:
[1] = target: T1, AXL (Homo sapiens, UniProt P30530); experiment: TR-FRET kinase activity assay, AXL; assay type: biochemical; conditions: ATP at Km, 60 minutes
T1 sequence (P30530 26-894): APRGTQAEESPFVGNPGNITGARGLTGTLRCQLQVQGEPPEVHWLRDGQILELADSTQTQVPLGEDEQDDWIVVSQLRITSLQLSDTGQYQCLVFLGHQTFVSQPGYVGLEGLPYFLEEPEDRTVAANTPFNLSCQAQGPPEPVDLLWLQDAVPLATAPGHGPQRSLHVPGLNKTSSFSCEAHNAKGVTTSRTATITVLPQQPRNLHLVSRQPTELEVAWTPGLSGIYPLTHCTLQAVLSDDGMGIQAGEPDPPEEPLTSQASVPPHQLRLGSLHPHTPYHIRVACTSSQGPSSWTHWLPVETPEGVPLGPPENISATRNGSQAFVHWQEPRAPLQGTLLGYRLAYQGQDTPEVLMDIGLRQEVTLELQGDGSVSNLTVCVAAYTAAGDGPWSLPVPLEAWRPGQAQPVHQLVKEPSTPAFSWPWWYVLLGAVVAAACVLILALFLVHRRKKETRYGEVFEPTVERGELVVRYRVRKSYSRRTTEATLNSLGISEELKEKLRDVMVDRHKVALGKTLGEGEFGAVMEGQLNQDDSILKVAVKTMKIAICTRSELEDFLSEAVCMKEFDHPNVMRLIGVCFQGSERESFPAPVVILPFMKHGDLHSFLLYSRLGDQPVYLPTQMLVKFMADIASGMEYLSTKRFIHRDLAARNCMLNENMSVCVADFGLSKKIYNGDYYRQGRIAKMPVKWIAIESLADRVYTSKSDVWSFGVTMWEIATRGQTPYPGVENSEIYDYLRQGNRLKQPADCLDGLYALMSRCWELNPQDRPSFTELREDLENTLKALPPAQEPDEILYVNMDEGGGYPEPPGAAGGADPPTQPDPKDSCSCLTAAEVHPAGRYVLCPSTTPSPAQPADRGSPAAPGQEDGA
How it was run: (§1)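 Inhibition is measured as loss of phospho-peptide formation: kinase, fluorescent tyrosine peptide and compound are combined, ATP is added at Km, and the reaction proceeds 60 min at RT in pH 7.5 HEPES buffer. An EDTA stop and Eu-labelled phospho-specific antibody allow TR-FRET detection for IC50 fitting.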

[2] = target: T2, TYRO3 (Homo sapiens, UniProt Q06418); experiment: TR-FRET kinase activity assay, TYRO3; assay type: biochemical; conditions: ATP at Km, 60 minutes
T2 sequence (Q06418 41-890): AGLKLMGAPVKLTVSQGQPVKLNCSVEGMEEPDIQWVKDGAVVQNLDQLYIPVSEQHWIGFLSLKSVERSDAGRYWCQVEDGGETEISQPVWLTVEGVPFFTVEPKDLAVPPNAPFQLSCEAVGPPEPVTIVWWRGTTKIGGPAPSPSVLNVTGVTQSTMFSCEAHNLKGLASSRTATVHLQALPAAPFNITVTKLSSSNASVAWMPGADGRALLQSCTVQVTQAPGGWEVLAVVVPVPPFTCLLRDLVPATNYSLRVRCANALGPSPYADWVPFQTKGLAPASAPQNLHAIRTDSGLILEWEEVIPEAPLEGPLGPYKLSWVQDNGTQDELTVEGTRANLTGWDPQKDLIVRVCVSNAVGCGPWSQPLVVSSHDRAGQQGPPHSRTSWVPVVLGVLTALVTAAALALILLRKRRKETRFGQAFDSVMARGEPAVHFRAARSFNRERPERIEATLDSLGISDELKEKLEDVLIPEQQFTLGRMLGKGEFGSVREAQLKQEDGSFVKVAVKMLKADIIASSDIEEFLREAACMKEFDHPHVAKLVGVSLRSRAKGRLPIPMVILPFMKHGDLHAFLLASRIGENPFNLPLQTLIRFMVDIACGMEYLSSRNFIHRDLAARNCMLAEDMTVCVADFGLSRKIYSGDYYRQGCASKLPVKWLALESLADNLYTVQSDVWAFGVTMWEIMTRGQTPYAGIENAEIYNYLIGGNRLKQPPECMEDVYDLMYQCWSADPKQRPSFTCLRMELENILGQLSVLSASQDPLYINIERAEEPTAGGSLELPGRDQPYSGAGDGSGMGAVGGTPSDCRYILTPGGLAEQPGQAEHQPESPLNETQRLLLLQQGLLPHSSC
How it was run: as §1

Row | Compound | IC50 [1] | IC50 [2]
1 | COC[C@H](C)Nc1ncc2c(N3CCCC3=O)cc([C@H]3CC[C@H](O)CC3)n2n1 [Compound 177] | 1000 to 10000 nM | 100 to 1000 nM
2 | COC[C@H](C)Nc1ncc2c(-c3cnn(C(C)(C)c4nnc(C)s4)c3)cc([C@H]3CC[C@H](O)CC3)n2n1 [Compound 625] | ≤ 100 nM | ≤ 100 nM
3 | COC[C@H](C)Nc1ncc2c(-c3cnn(C4COC4)c3)cc([C@H]3CC[C@](O)(C(C)C)CC3)n2n1 [Compound 617] | ≤ 100 nM | ≤ 100 nM
4 | COCCC(C)Nc1ncc2c(-c3ccc(CN4CCCC4)cc3)cc(C3CCC(O)CC3)n2n1 (stereo not shown) [Compound 161] | 100 to 1000 nM | ≤ 100 nM
5 | COC[C@H](C)Nc1ncc2c(-c3ccnc(N4CCC(C)(O)C4)c3)cc(C3CCC(O)CC3)n2n1 (stereo partly shown) [Compound 633] | ≤ 100 nM | ≤ 100 nM
6 | COC[C@H](C)Nc1ncc2c(-c3cnn(CC(=O)O)c3)cc([C@H]3CC[C@H](O)CC3)n2n1 [Compound 160] | ≤ 100 nM | ≤ 100 nM
7 | C[C@@H](CC(F)(F)F)Nc1ncc2c(-c3cnn(C(C)(C)C(=O)C4COC4)c3)cc([C@H]3CC[C@](C)(O)CC3)n2n1 [Compound 610] | ≤ 100 nM | ≤ 100 nM
8 | COC[C@H](C)Nc1ncc2c(-c3cnn(C(C)(C)C(=O)N4CCCC(C)(O)C4)c3)cc([C@H]3CC[C@H](O)CC3)n2n1 (stereo partly shown) [Compound 621] | ≤ 100 nM | ≤ 100 nM
9 | COCC(C)Nc1ncc2c(-c3ccc(C(C)N4CCCC4)cc3)cc(C3CCC(O)CC3)n2n1 (stereo not shown) [Compound 166] | ≤ 100 nM | ≤ 100 nM
10 | COC[C@H](C)Nc1ncc2c(-c3cnn(C(C)(C)C(=O)N4CC(C)(O)C4)c3)cc([C@H]3CC[C@H](O)CC3)n2n1 [Compound 622] | ≤ 100 nM | ≤ 100 nM
11 | COC[C@H](C)Nc1ncc2c(-c3cnn(C(C)(C)C(=O)N4CCCC4)c3)cc([C@H]3CC[C@H](O)CC3)n2n1 [Compound 612] | ≤ 100 nM | ≤ 100 nM
12 | COC[C@H](C)Nc1ncc2c(-c3cnn(C(C)(C)c4nc(C)co4)c3)cc([C@H]3CC[C@H](O)CC3)n2n1 [Compound 623] | ≤ 100 nM | ≤ 100 nM
13 | CC(Nc1ncc2c(-c3ccc(CN4CCN(C)CC4)cc3)cc([C@H]3CC[C@H](O)CC3)n2n1)C(F)F (mixture of isomers) [Compound 148] | ≤ 100 nM | ≤ 100 nM
14 | COC[C@H](C)Nc1ncc2c(-c3cnn(C4COC4)c3)cc([C@H]3CCc4[nH]ncc4C3)n2n1 [Compound 624] | ≤ 100 nM | ≤ 100 nM
15 | COC[C@H](C)Nc1ncc2c(-c3ccc(CN4CCN(c5nccc(C)n5)CC4)cc3)cc([C@H]3CC[C@H](O)CC3)n2n1 [Compound 154, (trans)-4-(2-(((S)-1-methoxypropan-2-yl)amino)-5-(4-((4-(4-methylpyrimidin-2-yl)piperazin-1-yl)methyl)phenyl)pyrrolo[2,1-f][1,2,4]triazin-7-yl)cyclohexanol] | ≤ 100 nM | ≤ 100 nM
16 | COC[C@H](C)Nc1ncc2c(N3CC4(COC4)CC3=O)cc([C@H]3CC[C@H](O)CC3)n2n1 [Compound 178] | 1000 to 10000 nM | 100 to 1000 nM
17 | COC[C@H](C)Nc1ncc2c(-c3ccc(C4(C(=O)O)CC4)cc3)cc([C@H]3CC[C@H](O)CC3)n2n1 [Compound 173] | ≤ 100 nM | ≤ 100 nM
18 | COC[C@H](C)Nc1ncc2c(-c3cnccc3C)cc([C@H]3CC[C@H](O)CC3)n2n1 [Compound 168] | 1000 to 10000 nM | 100 to 1000 nM
19 | COC[C@H](C)Nc1ncc2c(-c3ccc(C#N)c(F)c3)cc([C@H]3CC[C@H](O)CC3)n2n1 [Compound 169] | ≤ 100 nM | ≤ 100 nM

Row | Compound | IC50 [1] | IC50 [2]
20 | CCCCC[C@H](C)Nc1ncc2c(-c3ccc(S(=O)(=O)N4CCOCC4)cc3)cc([C@H]3CC[C@H](O)CC3)n2n1 [Compound 102, (1S,4r)-4-(2-((S)-heptan-2-ylamino)-5-(4-(morpholinosulfonyl)phenyl)pyrrolo[2,1-f][1,2,4]triazin-7-yl)cyclohexanol] | 100 to 1000 nM | ≤ 100 nM
21 | COC[C@H](C)Nc1ncc2c(-c3cnn(C4CCOCC4)c3)cc([C@H]3CC[C@H](O)CC3)n2n1 [Compound 151] | 100 to 1000 nM | ≤ 100 nM
22 | COCC(C)Nc1ncc2c(-c3ccc(C(C)N4CCOCC4)cc3)cc(C3CCC(O)CC3)n2n1 (stereo not shown) [Compound 182] | ≤ 100 nM | ≤ 100 nM
23 | COCC(C)Nc1ncc2c(-c3ccc(C(C)N4CCCC4)cc3)cc(C3CCC(O)CC3)n2n1 (stereo not shown) [Compound 164] | ≤ 100 nM | ≤ 100 nM
24 | COC[C@H](C)Nc1ncc2c(-c3cnn(C(C)(C)c4nnco4)c3)cc([C@H]3CC[C@H](O)CC3)n2n1 [Compound 604] | ≤ 100 nM | ≤ 100 nM
25 | COC[C@H](C)Nc1ncc2c(-c3ccnc(C)c3)cc([C@H]3CC[C@H](O)CC3)n2n1 [Compound 146] | 100 to 1000 nM | ≤ 100 nM
26 | CNC(=O)c1ccc(-c2cc([C@H]3CC[C@H](O)CC3)n3nc(N[C@@H](C)COC)ncc23)cn1 [Compound 147] | 100 to 1000 nM | ≤ 100 nM
27 | COCC(C)Nc1ncc2c(-c3ccc(C(C)(C)c4nnc(C)o4)s3)cc(C3CCC(O)CC3)n2n1 (stereo not shown) [Compound 611] | ≤ 100 nM | ≤ 100 nM
28 | COC[C@H](C)Nc1ncc2c(-c3ccc(CN4CCN(C)CC4)cc3)cc([C@H]3CC[C@@H](O)CC3)n2n1 [Compound 155] | ≤ 100 nM | ≤ 100 nM
29 | COC[C@H](C)Nc1ncc2c(-c3ccc(CN4CCOCC4)cc3)cc([C@H]3CC[C@@H](O)CC3)n2n1 [Compound 163, (cis)-4-(2-(((S)-1-methoxypropan-2-yl)amino)-5-(4-(morpholinomethyl)phenyl)pyrrolo[2,1-f][1,2,4]triazin-7-yl)cyclohexanol] | ≤ 100 nM | ≤ 100 nM
30 | COCC(C)Nc1ncc2c(-c3ccc(C(C)N4CCOCC4)cc3)cc(C3CCC(O)CC3)n2n1 (stereo not shown) [Compound 181] | 100 to 1000 nM | ≤ 100 nM
31 | COC[C@H](C)Nc1ncc2c([C@H]3CC[C@H](C(=O)N4CCN(C)CC4)CC3)cc([C@H]3CC[C@H](O)CC3)n2n1 [Compound 606] | ≤ 100 nM | ≤ 100 nM
32 | COC[C@H](C)Nc1ncc2c(-c3ccc([C@H](C)N4CCOCC4)cc3)cc([C@H]3CC[C@H](O)CC3)n2n1 [Compound 157] | ≤ 100 nM | ≤ 100 nM
33 | COC[C@H](C)Nc1ncc2c([C@H]3CC[C@@H](C(=O)N4CCN(C)CC4)CC3)cc([C@H]3CC[C@H](O)CC3)n2n1 [Compound 607] | ≤ 100 nM | ≤ 100 nM
34 | COC[C@H](C)Nc1ncc2c(-c3ccc(CN4CCN(C(C)=O)CC4)cc3)cc([C@H]3CC[C@H](O)CC3)n2n1 [Compound 150] | ≤ 100 nM | ≤ 100 nM
35 | C[C@@H](COC(F)F)Nc1ncc2c(-c3ccnc(N4CCOC(C(C)(C)O)C4)c3)cc([C@H]3CC[C@H](O)CC3)n2n1 (stereo partly shown) [Compound 598] | ≤ 100 nM | ≤ 100 nM
36 | COC[C@H](C)Nc1ncc2c(-c3cnn(C4COC4)c3)cc([C@H]3CC[C@@](O)(C(C)C)CC3)n2n1 [Compound 618] | ≤ 100 nM | ≤ 100 nM
37 | COC[C@H](C)Nc1ncc2c(-c3cnn(C(C)(C)c4nnc(N5CCOCC5)o4)c3)cc(C3CCC(O)CC3)n2n1 (stereo partly shown) [Compound 631] | ≤ 100 nM | ≤ 100 nM
38 | COC[C@H](C)Nc1ncc2c(-c3cccc(CN4CCCC4)c3)cc([C@H]3CC[C@H](O)CC3)n2n1 [Compound 179] | 100 to 1000 nM | ≤ 100 nM
